# Source: US20240182874A1, “NOVEL FAMILY OF DNA POLYMERASES ACCEPTING 2-AMINOADENINE AND REJECTING ADENINE IN THEIR SUBSTRATES” (THE EUROPEAN SYNDICATE OF SYNTHETIC SCIENTISTS AND …, priority 2021, published 2024)
# Columns and labels:
# Test in all cases: Single nucleotide extension assay, steady-state kinetics (Table 2)
# [1] = target: T1, Vibrio phage PhiVC8 DpoZ DNA polymerase (SEQ ID NO: 112), His-tagged, 3′-exonuclease-disabled mutant D85A (Vibrio phage phiVC8, UniProt G3FFN8, D85A); format: biochemical; settings: for Efficiency: catalytic efficiency, average and standard deviation of three independent assays
# T1 construct: 3'-exonuclease-disabled D85A
# T1 sequence (G3FFN8 1-633 D85A): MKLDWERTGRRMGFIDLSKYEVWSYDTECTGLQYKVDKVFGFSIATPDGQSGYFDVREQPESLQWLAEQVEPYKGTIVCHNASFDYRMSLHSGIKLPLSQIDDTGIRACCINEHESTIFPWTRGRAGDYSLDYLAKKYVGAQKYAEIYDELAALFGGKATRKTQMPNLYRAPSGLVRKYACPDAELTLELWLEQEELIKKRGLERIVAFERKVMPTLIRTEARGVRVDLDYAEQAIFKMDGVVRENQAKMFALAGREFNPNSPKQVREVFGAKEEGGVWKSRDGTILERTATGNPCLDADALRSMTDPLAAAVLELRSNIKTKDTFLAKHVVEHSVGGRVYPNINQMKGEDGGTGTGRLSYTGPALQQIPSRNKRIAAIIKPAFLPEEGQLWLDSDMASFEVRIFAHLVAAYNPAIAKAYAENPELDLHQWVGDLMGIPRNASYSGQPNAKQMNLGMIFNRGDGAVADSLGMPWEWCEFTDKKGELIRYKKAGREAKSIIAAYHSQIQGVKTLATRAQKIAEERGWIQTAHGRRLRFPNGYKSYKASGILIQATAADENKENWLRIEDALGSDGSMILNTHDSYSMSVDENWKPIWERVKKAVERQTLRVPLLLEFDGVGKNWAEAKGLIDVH
# Text: (§1) DpoZ genes from each bacteriophage were also cloned in the P15A plasmid pVDM18 previously described (Pezo et al., Sci Rep. 3, 1359 (2013)). Exonuclease mutants were constructed by site directed mutagenesis of pVDM18 Pol constructs using X1379/X1380 oligonucleotides for Vibrio phage PhiVC8 DNA pol (D85A mutation), X1865/X1866 for Arthrobacter phage Wayne DNA pol (D146A mutation), X1990/X1991 for Acinetobacter phage SH-Ab-15497 (D74A mutation), X1867/X1868 for Gordonia phage Ghobes DNA pol (D109A mutation) and X1601/X1602 for Klenow fragment of E. coli DNA pol I (D101A mutation). Mutations were verified by full sequencing of the constructs. These mutants were also sub-cloned into the pGEN452 vector downstream a His6-tag for protein expression
# (§2) Kinetic parameters were determined in a single nucleotide extension assay using DNA polymerase mutants devoid of 3′exonuclease activity, followed by denaturing polyacrylamide gel electrophoresis of the extended products essentially as described (O'Flaherty and Guengerich, Current Protocols in Nucleic Acid Chemistry. 59 (2014)). The fluorescent oligonucleotide X1648 was annealed to X1649 template. Duplex substrates were used at 500 nM concentration in reaction buffer (20 mM TrisHCl pH7, 200 mM NaCl, 2 mM DTT, 5 mM MgCl2), with different enzymes concentrations and various dNTPs concentrations. Reactions were performed at 37° C. for variable times in conditions to remain in the confines of the steady-state kinetic model e.g. remaining below 20% of product formation (Creighton et al., Methods in Enzymology (Elsevier, 1995; https://linkinghub.elsevier.com/retrieve/pii/0076687995620214), vol. 262, pp. 232-256).
# (§3) • The Km affinity constant and the kcat turnover number of 3′-exonuclease-disabled and His-tagged versions of DpoZ polymerases from Vibrio phage PhiVC8 and Acinetobacter phage SH-Ab 15497 are shown in comparison with PolA polymerase (Klenow fragment) from E. coli. The average and standard deviation of three independent assays carried out under the same conditions are given for each experiment.
# [2] = target: T2, Acinetobacter phage SH-Ab 15497 DpoZ DNA polymerase (SEQ ID NO: 113), His-tagged, 3′-exonuclease-disabled mutant D74A (Acinetobacter phage SH-Ab 15497, UniProt A0A2H5BHJ5, D74A); format: biochemical; settings: for Efficiency: catalytic efficiency, average and standard deviation of three independent assays
# T2 construct: 3'-exonuclease-disabled D74A
# T2 sequence (A0A2H5BHJ5 1-624 D74A): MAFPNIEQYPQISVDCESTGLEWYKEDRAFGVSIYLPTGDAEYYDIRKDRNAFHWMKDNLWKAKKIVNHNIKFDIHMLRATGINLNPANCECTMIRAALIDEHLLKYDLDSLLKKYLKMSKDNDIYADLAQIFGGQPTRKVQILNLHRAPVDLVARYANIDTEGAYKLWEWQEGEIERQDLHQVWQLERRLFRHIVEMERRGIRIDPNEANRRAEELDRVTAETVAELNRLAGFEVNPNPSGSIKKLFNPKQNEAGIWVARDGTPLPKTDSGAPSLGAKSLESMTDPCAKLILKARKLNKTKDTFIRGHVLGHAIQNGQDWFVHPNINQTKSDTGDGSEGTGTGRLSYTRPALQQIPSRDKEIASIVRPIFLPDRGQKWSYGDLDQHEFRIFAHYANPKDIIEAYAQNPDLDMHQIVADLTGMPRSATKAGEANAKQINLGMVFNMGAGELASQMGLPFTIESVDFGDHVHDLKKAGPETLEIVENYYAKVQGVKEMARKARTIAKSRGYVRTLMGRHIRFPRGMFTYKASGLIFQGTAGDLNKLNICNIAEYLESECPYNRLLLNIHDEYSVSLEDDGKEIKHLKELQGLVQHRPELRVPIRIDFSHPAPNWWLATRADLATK
# Text: as §1, §2, §3
# [3] = target: T3, E. coli PolA polymerase (Klenow fragment of E. coli DNA pol I, SEQ ID NO: 234), His-tagged, 3′-exonuclease-disabled mutant D101A (Escherichia coli, UniProt P00582, D424A); format: biochemical; settings: for Efficiency: catalytic efficiency, average and standard deviation of three independent assays
# T3 construct: 3'-exonuclease-disabled
# Text: as §1, §2, §3
# [4] = system: T4, Nc1ncnc2c1ncn2[C@H]1C[C@H](O)[C@@H](COP(=O)(O)OP(=O)(O)OP(=O)(O)O)O1; format: biochemical, Vibrio phage PhiVC8; settings: other: 37° C., pH7, 500 nM duplex X1648/X1649, average and standard deviation of three independent assays, pH 7.0
# T4 construct: 3'-exonuclease-disabled D85A
# Text: as §1, §2, §3
# [5] = system: T5, Nc1nc(N)c2ncn([C@H]3C[C@H](O)[C@@H](COP(=O)(O)OP(=O)(O)OP(=O)(O)O)O3)c2n1; format: biochemical, Vibrio phage PhiVC8; settings: other: 37° C., pH7, 500 nM duplex X1648/X1649, average and standard deviation of three independent assays, pH 7.0
# T5 construct: 3'-exonuclease-disabled D85A
# Text: as §1, §2, §3
# [6] = system: T6, Nc1ncnc2c1ncn2[C@H]1C[C@H](O)[C@@H](COP(=O)(O)OP(=O)(O)OP(=O)(O)O)O1; format: biochemical, Acinetobacter phage SH-Ab 15497; settings: other: 37° C., pH7, 500 nM duplex X1648/X1649, average and standard deviation of three independent assays, pH 7.0
# T6 construct: 3'-exonuclease-disabled D74A
# Text: as §1, §2, §3
# [7] = system: T7, Nc1nc(N)c2ncn([C@H]3C[C@H](O)[C@@H](COP(=O)(O)OP(=O)(O)OP(=O)(O)O)O3)c2n1; format: biochemical, Acinetobacter phage SH-Ab 15497; settings: other: 37° C., pH7, 500 nM duplex X1648/X1649, average and standard deviation of three independent assays, pH 7.0
# T7 construct: 3'-exonuclease-disabled D74A
# Text: as §1, §2, §3
# T3 sequence (P00582 with tags, fused parts or gaps D424A): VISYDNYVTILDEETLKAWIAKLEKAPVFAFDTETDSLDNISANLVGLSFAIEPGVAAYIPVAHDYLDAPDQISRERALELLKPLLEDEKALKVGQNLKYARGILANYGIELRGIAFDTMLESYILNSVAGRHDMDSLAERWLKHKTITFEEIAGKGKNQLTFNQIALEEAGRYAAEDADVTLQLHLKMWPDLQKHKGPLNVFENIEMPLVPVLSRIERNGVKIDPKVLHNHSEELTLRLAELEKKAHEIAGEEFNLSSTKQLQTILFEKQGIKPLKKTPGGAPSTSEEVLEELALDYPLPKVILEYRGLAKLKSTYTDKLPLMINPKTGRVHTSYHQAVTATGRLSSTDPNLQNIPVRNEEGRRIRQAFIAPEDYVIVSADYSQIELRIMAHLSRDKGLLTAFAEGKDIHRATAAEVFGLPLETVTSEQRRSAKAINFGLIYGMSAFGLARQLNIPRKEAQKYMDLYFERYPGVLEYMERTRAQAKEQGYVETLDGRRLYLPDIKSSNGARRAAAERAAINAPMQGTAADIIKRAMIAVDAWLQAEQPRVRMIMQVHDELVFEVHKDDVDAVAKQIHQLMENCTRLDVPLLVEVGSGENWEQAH
compound,measurement,setting,value
"Nc1nc(N)c2ncn([C@H]3C[C@H](O)[C@@H](COP(=O)(O)OP(=O)(O)OP(=O)(O)O)O3)c2n1 [dZTP, 2-amino-2′-deoxyadenosine 5′-triphosphate]",factor in catalytic efficiency with dZTP relative to dATP,[1],90 -fold
same,Efficiency,[1],4.35 ± 1.56 mM⁻¹ s⁻¹
same,kcat^(Z)/kcat^(A),[1]; kcat dZTP / kcat dATP,2.00
same,factor in catalytic efficiency with dZTP relative to dATP,[2],29 -fold
same,Efficiency,[2],0.23 ± 0.06 mM⁻¹ s⁻¹
same,kcat^(Z)/kcat^(A),[2]; kcat dZTP / kcat dATP,1.81
same,factor in catalytic efficiency with dZTP relative to dATP,[3],0.5 -fold
same,Efficiency,[3],17.73 ± 4.96 mM⁻¹ s⁻¹
same,kcat^(Z)/kcat^(A),[3]; kcat dZTP / kcat dATP,0.68
"Vibrio phage PhiVC8 DpoZ DNA polymerase (SEQ ID NO: 112), His-tagged, 3′-exonuclease-disabled mutant D85A (Vibrio phage phiVC8; D85A)",Km,[4],4500 ± 1380 µM
same,kcat,[4],0.21 ± 0.05 s⁻¹
same,Km,[5],100 ± 20 µM
same,kcat,[5],0.42 ± 0.14 s⁻¹
"Nc1ncnc2c1ncn2[C@H]1C[C@H](O)[C@@H](COP(=O)(O)OP(=O)(O)OP(=O)(O)O)O1 [dATP, deoxyadenosine 5′-triphosphate]",Efficiency,[1],0.048 ± 0.017 mM⁻¹ s⁻¹
same,Efficiency,[2],0.008 ± 0.001 mM⁻¹ s⁻¹
same,Efficiency,[3],30.40 ± 5.82 mM⁻¹ s⁻¹
"Acinetobacter phage SH-Ab 15497 DpoZ DNA polymerase (SEQ ID NO: 113), His-tagged, 3′-exonuclease-disabled mutant D74A (Acinetobacter phage SH-Ab 15497; D74A)",Km,[6],21400 ± 3400 µM
same,kcat,[6],0.16 ± 0.01 s⁻¹
same,Km,[7],1300 ± 360 µM
same,kcat,[7],0.29 ± 0.07 s⁻¹
